# Results taken from EPA's ToxRefDB 2.
# Columns and labels:
# [1] = tested on: rat; conditions: Prenatal developmental toxicity study, sprague dawley, Oral, Gavage/Intubation, dose end: 19 GD
# [2] = tested on: rat; conditions: Prenatal developmental toxicity study, sprague dawley, Oral, Gavage/Intubation, dose end: 19 GD; remark: listed apart in the source
# [3] = tested on: rat; conditions: Subchronic oral toxicity in rodents, sprague dawley, Gavage/Intubation, dose end: 13 week, group: systemic
# [4] = tested on: rabbit; conditions: Prenatal developmental toxicity study, dutch, Oral, Gavage/Intubation, dose end: 18 GD
# [5] = tested on: mouse; conditions: Subchronic oral toxicity in rodents, cd1, Feed, dose end: 6 week, group: systemic
# [6] = tested on: rat; conditions: Subchronic oral toxicity in rodents, sprague dawley, Feed, dose end: 13 week, group: systemic
# [7] = tested on: rabbit; conditions: Sub-acute dermal toxicity, new zealand white, Topical, dose end: 21 day, group: systemic, systemic / pathology gross / skin / scabbing + systemic / pathology microscopic / skin / acanthosis + systemic / pathology microscopic / …
# [8] = tested on: mouse; conditions: Carcinogenicity; b6c3f1; Oral; Gavage; dose end: 103 week; group: systemic; systemic / organ weight / kidney / absolute + systemic / pathology microscopic / kidney / nephropathy + systemic / pathology microscopic / …
# [9] = tested on: rat; conditions: Subchronic oral toxicity in rodents, fischer, Gavage/Intubation, dose end: 13 week, group: systemic
# [10] = tested on: mouse; conditions: Sub-acute repeat dose toxicity, b6c3f1, Oral, Gavage/Intubation, dose end: 16 day, group: systemic
# [11] = tested on: rat; conditions: Combined chronic toxicity/carcinogenicity, fischer, Oral, Gavage/Intubation, dose end: 103 week, group: systemic
# [12] = tested on: rat; conditions: Prenatal developmental toxicity study, sprague dawley, Oral, Gavage/Intubation, dose end: 15 GD
# [13] = tested on: rat; conditions: Subchronic oral toxicity in rodents, fischer, Gavage/Intubation, dose end: 13 week, group: systemic; remark: listed apart in the source
# [14] = tested on: rat; conditions: Sub-acute repeat dose toxicity, fischer, Oral, Gavage/Intubation, dose end: 16 day, group: systemic
# [15] = tested on: rat; conditions: Prenatal developmental toxicity study, wistar, Oral, Gavage/Intubation, dose end: 15 GD
# [16] = tested on: rat; conditions: Carcinogenicity; Osborne-Mendel; Oral; Feed; dose end: 80 week; group: systemic; systemic / in life observation / clinical signs / [other] + systemic / in life observation / clinical signs / alopecia + systemic / in life …
# [17] = tested on: mouse; conditions: Carcinogenicity; b6c3f1; Oral; Feed; dose end: 80 week; group: systemic; systemic / in life observation / clinical signs / aggressive behavior + systemic / in life observation / clinical signs / alopecia + …
# [18] = tested on: rat; conditions: Prenatal developmental toxicity study; sprague dawley; Oral; Gavage/Intubation; dose end: 20 GD; group: maternal; systemic / in life observation / body weight / body weight gain
# [19] = tested on: mouse; conditions: Multigenerational reproductive toxicity study, other, Oral, Feed, dose end: 1 generation
# [20] = tested on: hamster; conditions: Developmental neurotoxicity study; golden syrian; Oral; Gavage/Intubation; dose end: 125 PND; group: cannot be grouped; systemic / in life observation / mortality / mortality
# [21] = tested on: mouse; conditions: Prenatal developmental toxicity study, cd1, Oral, Gavage/Intubation, dose end: 17 GD
# [22] = group: developmental, systemic / in life observation / body weight / fetal weight
# [23] = group: maternal, systemic / in life observation / clinical signs / salivation + systemic / in life observation / body weight / body weight + systemic / in …
# [24] = group: maternal, reproductive / reproductive performance / estrous cycle / corpora lutea
# [25] = group: maternal, systemic / in life observation / body weight / body weight + systemic / in life observation / body weight / body weight gain + systemic / in…
# [26] = systemic / pathology microscopic / stomach / edema + systemic / pathology microscopic / stomach / hyperkeratosis + systemic / pathology …
# [27] = group: developmental, developmental / developmental malformation / bone / unossified + systemic / in life observation / body weight / fetal weight
# [28] = group: maternal, systemic / in life observation / body weight / body weight gain + systemic / in life observation / mortality / mortality
# [29] = group: maternal, systemic / in life observation / body weight / body weight gain + systemic / in life observation / mortality / mortality + reproductive / …
# [30] = systemic / in life observation / body weight / body weight gain + systemic / pathology microscopic / stomach / [other] + systemic / …
# [31] = systemic / in life observation / clinical signs / piloerection + systemic / organ weight / heart / absolute + systemic / pathology gross / …
# [32] = systemic / hematology / leukocyte (wbc) count differential / leukocyte (wbc)
# [33] = systemic / in life observation / clinical signs / alopecia + systemic / in life observation / clinical signs / urogenital staining
# [34] = systemic / organ weight / kidney / absolute + systemic / organ weight / kidney / relative to body weight + systemic / pathology microscopic…
# [35] = systemic / in life observation / clinical signs / abnormal posture + systemic / in life observation / clinical signs / fur (altered …
# [36] = systemic / pathology gross / intestine large / dilatation
# [37] = systemic / pathology microscopic / kidney / nephropathy + systemic / urinalysis / coporphoryin / coporphoryin
# [38] = group: developmental, developmental / developmental malformation / general / runts + systemic / in life observation / body weight / fetal weight
# [39] = systemic / clinical chemistry / creatinine / creatinine + systemic / clinical chemistry / urea nitrogen / urea nitrogen + systemic / organ …
# [40] = systemic / clinical chemistry / creatinine / creatinine + systemic / clinical chemistry / urea nitrogen / urea nitrogen + systemic / …
# [41] = group: maternal, systemic / in life observation / body weight / body weight gain
# [42] = group: maternal, systemic / in life observation / body weight / body weight gain + systemic / in life observation / clinical signs / mucoid stools + systemic…
# [43] = group: parental, systemic / in life observation / mortality / mortality
# [44] = group: reproductive, reproductive / reproductive performance / mating / mating + reproductive / offspring survival early / litter size / litter size
# [45] = group: developmental, developmental / developmental malformation / bone / absent + developmental / developmental malformation / bone / ossification sites + …
# [46] = group: maternal, systemic / in life observation / body weight / body weight gain + systemic / in life observation / mortality / mortality + systemic / organ …
# [47] = group: maternal, systemic / organ weight / liver / relative to body weight
compound,measurement,setting,value
"O=C(CBr)OCC=CCOC(=O)CBr [1,4-Bis(bromoacetoxy)-2-butene]",LEL,[1]; [22],35 mg/kg/day
same,LOAEL,[1]; [22],35 mg/kg/day
same,NEL,[1]; [22],20 mg/kg/day
same,NOAEL,[1]; [22],20 mg/kg/day
same,LOAEL,"[1]; group: maternal, systemic / in life observation / clinical signs / salivation",20 mg/kg/day
same,NEL,[1]; [23],5 mg/kg/day
same,NOAEL,[1]; [23],5 mg/kg/day
same,LEL,"[1]; group: maternal, systemic / in life observation / clinical signs / salivation + systemic / in life observation / clinical signs / fur (altered appearance) + …",20 mg/kg/day
same,LEL,[2]; [22],50 mg/kg/day
same,LOAEL,[2]; [22],50 mg/kg/day
same,NEL,[2]; [22],25 mg/kg/day
same,NOAEL,[2]; [22],25 mg/kg/day
same,LEL,[2]; [24],25 mg/kg/day
same,NEL,[2]; [24],< 25 mg/kg/day
same,LOAEL,[2]; [25],50 mg/kg/day
same,NOAEL,[2]; [25],25 mg/kg/day
same,NEL,[3]; systemic / clinical chemistry / calcium / calcium + systemic / clinical chemistry / glucose / glucose + systemic / clinical chemistry / urea…,39.1 mg/kg/day
same,LOAEL,[3]; [26],4.5 mg/kg/day
same,NOAEL,[3]; [26],< 4.5 mg/kg/day
Clc1nc(Cl)nc(Nc2ccccc2Cl)n1 [Anilazine],LEL,[4]; [27],75 mg/kg/day
same,LOAEL,[4]; [27],75 mg/kg/day
same,NEL,[4]; [27],40 mg/kg/day
same,NOAEL,[4]; [27],40 mg/kg/day
same,LEL,[4]; [28],40 mg/kg/day
same,LOAEL,[4]; [28],40 mg/kg/day
same,NEL,[4]; [29],15 mg/kg/day
same,NOAEL,[4]; [29],15 mg/kg/day
same,LOAEL,[5]; [30],1380 mg/kg/day
same,NOAEL,[5]; [30],339 mg/kg/day
same,LEL,[5]; [31],334 mg/kg/day
same,NEL,[5]; [31],< 334 mg/kg/day
same,LOAEL,[6]; [32],45.9 mg/kg/day
same,NOAEL,[6]; [32],< 45.9 mg/kg/day
same,NEL,[6]; systemic / organ weight / liver / relative to body weight + systemic / organ weight / lung / relative to body weight + systemic / organ …,600 mg/kg/day
Oc1ccc(Cl)cc1Cc1ccccc1 [Clorophene],LEL,[7],5 mg/kg/day
same,LOAEL,[7],5 mg/kg/day
same,NEL,[7],1 mg/kg/day
same,NOAEL,[7],1 mg/kg/day
same,LEL,[8],120 mg/kg/day
same,LOAEL,[8],120 mg/kg/day
same,NEL,[8],< 120 mg/kg/day
same,NOAEL,[8],< 120 mg/kg/day
same,LEL,[9]; [33],30 mg/kg/day
same,NEL,[9]; [33],< 30 mg/kg/day
same,LOAEL,[9]; [34],480 mg/kg/day
same,NOAEL,[9]; [34],240 mg/kg/day
same,LOAEL,[10]; [35],> 1000 mg/kg/day
same,NEL,[10]; [35],62.5 mg/kg/day
same,NOAEL,[10]; [35],≥ 1000 mg/kg/day
same,LEL,[10]; [36],125 mg/kg/day
same,NEL,[11]; systemic / in life observation / clinical signs / urogenital staining + systemic / organ weight / heart / absolute + systemic / organ weight…,240 mg/kg/day
same,LOAEL,[11]; [37],30 mg/kg/day
same,NOAEL,[11]; [37],< 30 mg/kg/day
same,LEL,[12]; [38],1000 mg/kg/day
same,LOAEL,[12]; [38],> 1000 mg/kg/day
same,NEL,[12]; [38],300 mg/kg/day
same,NOAEL,[12]; [38],≥ 1000 mg/kg/day
same,LOAEL,[12]; [25],> 1000 mg/kg/day
same,NEL,[12]; [25],100 mg/kg/day
same,NOAEL,[12]; [25],≥ 1000 mg/kg/day
same,LEL,"[12]; group: maternal, systemic / in life observation / body weight / body weight + systemic / in life observation / water consumption / water consumption",300 mg/kg/day
same,LOAEL,[13]; [39],240 mg/kg/day
same,NOAEL,[13]; [39],120 mg/kg/day
same,LEL,[13]; [40],30 mg/kg/day
same,NEL,[13]; [40],< 30 mg/kg/day
same,LOAEL,[14]; [34],1000 mg/kg/day
same,NOAEL,[14]; [34],500 mg/kg/day
same,LEL,[14]; [36],62.5 mg/kg/day
same,NEL,[14]; [36],< 62.5 mg/kg/day
same,LEL,[15]; [22],375 mg/kg/day
same,LOAEL,[15]; [22],375 mg/kg/day
same,NEL,[15]; [22],75 mg/kg/day
same,NOAEL,[15]; [22],75 mg/kg/day
same,LEL,[15]; [41],75 mg/kg/day
same,LOAEL,[15]; [41],75 mg/kg/day
same,NEL,[15]; [42],15 mg/kg/day
same,NOAEL,[15]; [42],15 mg/kg/day
ClC1=C(Cl)[C@]2(Cl)[C@@H]3[C@H]4C[C@H]([C@@H]5O[C@H]45)[C@@H]3[C@@]1(Cl)C2(Cl)Cl [Endrin],LEL,[16],0.125 mg/kg/day
same,LOAEL,[16],> 0.25 mg/kg/day
same,NEL,[16],< 0.125 mg/kg/day
same,NOAEL,[16],≥ 0.25 mg/kg/day
same,LEL,[17],0.24 mg/kg/day
same,LOAEL,[17],> 0.48 mg/kg/day
same,NEL,[17],< 0.24 mg/kg/day
same,NOAEL,[17],≥ 0.48 mg/kg/day
same,LEL,[18],0.3 mg/kg/day
same,LOAEL,[18],> 0.45 mg/kg/day
same,NEL,[18],0.15 mg/kg/day
same,NOAEL,[18],≥ 0.45 mg/kg/day
same,LEL,[19]; [43],0.75 mg/kg/day
same,LOAEL,[19]; [43],> 0.75 mg/kg/day
same,NEL,[19]; [43],< 0.75 mg/kg/day
same,NOAEL,[19]; [43],≥ 0.75 mg/kg/day
same,LEL,[19]; [44],0.75 mg/kg/day
same,LOAEL,[19]; [44],> 0.75 mg/kg/day
same,NEL,[19]; [44],< 0.75 mg/kg/day
same,NOAEL,[19]; [44],≥ 0.75 mg/kg/day
same,LEL,[20],1.5 mg/kg/day
same,LOAEL,[20],> 1.5 mg/kg/day
same,NOAEL,[20],≥ 1.5 mg/kg/day
same,LEL,[21]; [45],1 mg/kg/day
same,LOAEL,[21]; [45],> 2 mg/kg/day
same,NEL,[21]; [45],0.5 mg/kg/day
same,NOAEL,[21]; [45],≥ 2 mg/kg/day
same,LOAEL,[21]; [46],> 2 mg/kg/day
same,NOAEL,[21]; [46],≥ 2 mg/kg/day
same,LEL,[21]; [47],0.5 mg/kg/day
same,NEL,[21]; [47],< 0.5 mg/kg/day
